# Source: patent US20190358181A1, “METHODS FOR AUTISM SPECTRUM DISORDER PHARMACOTHERAPY” (priority 2017, published 2019)
# System: 610 metabolites from 63 biochemical pathways
# Experiment: Targeted broad-spectrum plasma metabolomic analysis (LC-MS/MS), paired pre-infusion vs post-infusion (2-days and 6-weeks)
# Type: in vivo, human
# Method: Targeted, broad-spectrum, plasma metabolomic analysis of 610 metabolites from 63 biochemical pathways was performed by high performance liquid chromatography and tandem mass spectrometry (LC-MS/MS) on the samples collected from patients in Example 1. Venous blood was collected between the hours of 8 am and 5 pm, at least 3 hours after the last meal, into lithium-heparin vacutainer tubes (BD #367884). Plasma was separated by centrifugation at 900 g×10 minutes at room temperature within one hour of collection. The resulting fresh lithium-heparin plasma was transferred to labeled 1.2 ml or 2.0 ml externally threaded cryotubes with a minimum headspace air gap for storage at −80° C. for analysis. Samples were analyzed on an AB SCIEX QTRAP 5500 triple quadrupole mass spectrometer equipped with a Turbo V electrospray ionization (ESI) source, Shimadzu LC-20A UHPLC system, and a PAL CTC autosampler. Typically, 90 μl of plasma was thawed on ice and transferred to a 1.7 ml Eppendorf tube. Five (5.0) μl of a cocktail containing 25-35 commercial stable isotope internal standards, and 5.0 μl of 57 stable isotope internal standards that were custom-synthesized in E. coli NCM3722, Caenorhabditis elegans N2, and Komagataella phaffii (ATCC 76273; formerly known as Pichia pastoris) by metabolic labeling with 13C-glucose and 13C-bicarbonate, were added, mixed, and incubated for 10 min at 20° C. to permit small molecules and vitamins in the internal standards to associate with plasma binding proteins. Macromolecules (protein, DNA, RNA, glycans, etc.) were precipitated by extraction with 4 volumes (400 μl) of cold (−20° C.), acetonitrile:methanol (50:50) (LCMS grade, Cat #LC015-2.5 and GC230-4, Burdick & Jackson, Honeywell), vortexed vigorously, and incubated on crushed ice for 10 min, then removed by centrifugation at 16,000 g×10 min at 4° C. The supernatants containing the extracted metabolites and internal standards in the resulting 40:40:20 solvent mix of acetonitrile:methanol:water were transferred to labeled cryotubes and stored at −80° C. for LCMS/MS analysis.
# LC-MS/MS analysis was performed by scheduled multiple reaction monitoring (sMRM) under Analyst v1.6.2 software control in both negative and positive mode with rapid polarity switching (50 ms). Nitrogen was used for curtain gas (set to 30), collision gas (set to high), ion source gas 1 and 2 (set to 35). The source temperature was 500° C. Spray voltage was set to −4500 V in negative mode and 5500 V in positive mode. The values for Q1 and Q3 mass-to-charge ratios (m/z), declustering potential (DP), entrance potential (EP), collision energy (CE), and collision cell exit potential (CXP) were determined and optimized for each MRM for each metabolite. Ten microliters of extract was injected by PAL CTC autosampler via a 10 μl stainless steel loop into a 250 mm×2.0 mm, 4 μm polymer based NH2 HPLC column (Asahipak NH2P-40 2E, Showa Denko America, Inc., NY) held at 25° C. for chromatographic separation. The mobile phase was solvent A: 95% water with 20 mM (NH4)2CO3 (Sigma, Fluka Cat #74415-250G-F), 5% acetonitrile, and 38 mM NH4OH (Sigma, Fluka Cat #17837-100ML), final pH 9.75; solvent B: 100% acetonitrile. Separation was achieved using the following gradient: 0-3.5 min: 95% B, 3.6-8 min: 85% B, 8.1-13 min: 75% B, 13.5-35 min: 0% B, 36-46 min: 95% B, 46.1 min: end. The flow rate was 200 μl/min. Pump pressures ranged from 920-2600 psi over the course of the gradient. All the samples were kept at 4° C. during analysis. The chromatographic peaks were identified using MultiQuant (v3.0, Sciex), confirmed by manual inspection, and the peak areas integrated. […]
# [1] = Tyrosine and Phenylalanine Metabolism, 2-days
# [2] = Tyrosine and Phenylalanine Metabolism, 6-weeks
# [3] = Vitamin C (Ascorbate) Metabolism, 6-weeks
# [4] = Vitamin D (Calciferol) Metabolism, 2-days
# [5] = cis-aconitic acid, plasma, 6-weeks
# [6] = lsovalerylglycine, plasma, 6-weeks
# [7] = p-Hydroxyphenylacetic acid, plasma, 6-weeks
# [8] = plasma, 2-days after infusion vs pre-infusion, Amino Acid Metabolism (not otherwise covered)
# [9] = plasma, 2-days after infusion vs pre-infusion, Amino-Sugar, Galactose, & Non-Glucose Metabolism
# [10] = plasma, 2-days after infusion vs pre-infusion, Bile Salt Metabolism
# [11] = plasma, 2-days after infusion vs pre-infusion, Bioamines and Neurotransmitter Metabolism
# [12] = plasma, 2-days after infusion vs pre-infusion, Branch Chain Amino Acid Metabolism
# [13] = plasma, 2-days after infusion vs pre-infusion, Cardiolipin Metabolism
# [14] = plasma, 2-days after infusion vs pre-infusion, Ceramide Metabolism
smiles,measurement,setting,value
"Cc1ccc(C(=O)Nc2ccc(S(=O)(=O)O)c3cc(S(=O)(=O)O)cc(S(=O)(=O)O)c23)cc1NC(=O)c1cccc(NC(=O)Nc2cccc(C(=O)Nc3cc(C(=O)Nc4ccc(S(=O)(=O)O)c5cc(S(=O)(=O)O)cc(S(=O)(=O)O)c45)ccc3C)c2)c1 [Suramin, suramin]",Increased,[1],1
same,Observed Hits in the Top 61 Metabolites,[1],1
same,Decreased,[2],0
same,Fold Enrichment (Obs/Exp),[2],6.0
same,Fraction of Impact (VIP Score) Explained (% of 94.6),[2],4%
same,Impact (Sum VIP Score),[2],3.7
same,Increased,[2],2
same,Observed Hits in the Top 48 Metabolites,[2],2
same,Linear Ratio,"Uridine, plasma, 6-weeks",1.244
same,VIP Score,"Uridine, plasma, 6-weeks",1.764
same,Z Abs,"Uridine, plasma, 6-weeks",0.928
same,Z Score,"Uridine, plasma, 6-weeks",0.928
same,Decreased,[3],0
same,Fold Enrichment (Obs/Exp),[3],4.5
same,Fraction of Impact (VIP Score) Explained (% of 94.6),[3],2%
same,Impact (Sum VIP Score),[3],2.0
same,Increased,[3],1
same,Observed Hits in the Top 48 Metabolites,[3],1
same,Decreased,[4],1
same,Fold Enrichment (Obs/Exp),[4],2.4
same,Fraction of Impact (VIP Score) Explained (% of 119.7),[4],3%
same,Impact (Sum VIP Score),[4],3.1
same,Increased,[4],0
same,Observed Hits in the Top 61 Metabolites,[4],1
same,Linear Ratio,[5],1.278
same,VIP Score,[5],1.852
same,Z Abs,[5],0.928
same,Z Score,[5],0.928
same,metabolites significantly changed by suramin (total),day 2,61
same,Linear Ratio,[6],2.027
same,VIP Score,[6],1.888
same,Z Abs,[6],0.901
same,Z Score,[6],0.901
same,Linear Ratio,[7],1.306
same,VIP Score,[7],2.203
same,Z Abs,[7],2.226
same,Z Score,[7],2.226
same,1-Methyl-adenine (1-MA),plasma,increased
same,AICAR,plasma,increased
same,cAMP,plasma,decreased
same,dGDP,plasma,decreased
same,"Linear Ratio, Alanine",[8],1.193
same,"VIP Score, Alanine",[8],1.776
same,"Z Abs, Alanine",[8],1.066
same,"Z Score, Alanine",[8],1.066
same,"Linear Ratio, Myoinositol",[9],1.286
same,"VIP Score, Myoinositol",[9],1.645
same,"Z Abs, Myoinositol",[9],0.785
same,"Z Score, Myoinositol",[9],0.785
same,"Linear Ratio, Chenodeoxyglycocholic acid",[10],2.787
same,"Linear Ratio, Glycocholic acid",[10],2.344
same,"Linear Ratio, Taurocholic acid",[10],2.183
same,"Linear Ratio, Taurodeoxycholic acid Pool",[10],2.614
same,"VIP Score, Chenodeoxyglycocholic acid",[10],3.171
same,"VIP Score, Glycocholic acid",[10],3.090
same,"VIP Score, Taurocholic acid",[10],2.615
same,"VIP Score, Taurodeoxycholic acid Pool",[10],3.048
same,"Z Abs, Chenodeoxyglycocholic acid",[10],1.610
same,"Z Abs, Glycocholic acid",[10],2.020
same,"Z Abs, Taurocholic acid",[10],1.102
same,"Z Abs, Taurodeoxycholic acid Pool",[10],1.326
same,"Z Score, Chenodeoxyglycocholic acid",[10],1.610
same,"Z Score, Glycocholic acid",[10],2.020
same,"Z Score, Taurocholic acid",[10],1.102
same,"Z Score, Taurodeoxycholic acid Pool",[10],1.326
same,"Linear Ratio, Dopamine",[11],0.877
same,"Linear Ratio, L-Glutamic acid",[11],0.797
same,"VIP Score, Dopamine",[11],1.653
same,"VIP Score, L-Glutamic acid",[11],1.641
same,"Z Abs, Dopamine",[11],0.642
same,"Z Abs, L-Glutamic acid",[11],0.619
same,"Z Score, Dopamine",[11],−0.642
same,"Z Score, L-Glutamic acid",[11],−0.619
same,"Linear Ratio, Isovalerylglycine",[12],1.951
same,"Linear Ratio, L-Isoleucine",[12],1.094
same,"Linear Ratio, L-Valine",[12],1.165
same,"Linear Ratio, Tiglylglycine",[12],1.141
same,"VIP Score, Isovalerylglycine",[12],1.783
same,"VIP Score, L-Isoleucine",[12],2.136
same,"VIP Score, L-Valine",[12],1.808
same,"VIP Score, Tiglylglycine",[12],1.562
same,"Z Abs, Isovalerylglycine",[12],0.852
same,"Z Abs, L-Isoleucine",[12],0.815
same,"Z Abs, L-Valine",[12],0.749
same,"Z Abs, Tiglylglycine",[12],0.657
same,"Z Score, Isovalerylglycine",[12],0.852
same,"Z Score, L-Isoleucine",[12],0.815
same,"Z Score, L-Valine",[12],0.749
same,"Z Score, Tiglylglycine",[12],0.657
same,"Linear Ratio, CL(18:2/18:2/18:2/18:1)",[13],1.102
same,"Linear Ratio, CL(18:2/18:2/18:2/18:2)",[13],1.181
same,"Linear Ratio, Ceramide(d18:1/18:2)",[14],1.337
same,"VIP Score, Ceramide(d18:1/18:2)",[14],1.521
